In patent US20210238176A1, “PESTICIDALLY-ACTIVE BICYCLIC HETEROAROMATIC COMPOUNDS” (SYNGENTA CROP PROTECTION AG, priority 2018, published 2021):

Columns and labels:
Format in all cases: in vivo
[1] = system: Myzus persicae (Green Peach Aphid); test: Myzus persicae systemic activity, pea seedling roots in test solution; conditions: 144 h, test rate 24 ppm, systemic via pea seedling roots, 6 days
Method: Myzus persicae (Green Peach Aphid). Systemic Activity
Roots of pea seedlings infested with an aphid population of mixed ages were placed directly into aqueous test solutions prepared from 10,000 ppm DMSO stock solutions. The samples were assessed for mortality 6 days after placing seedlings into test solutions.

[2] = system: Myzus persicae (Green Peach Aphid); test: Myzus persicae intrinsic activity, sucrose solution under Parafilm; conditions: 120 h, test rate 12 ppm, 5 days after infestation
Description: Myzus persicae (Green Peach Aphid). Intrinsic Activity
Test compounds prepared from 10,000 ppm DMSO stock solutions were applied by pipette into 24-well microtiter plates and mixed with sucrose solution. The plates were closed with a stretched Parafilm. A plastic stencil with 24 holes was placed onto the plate and infested pea seedlings were placed directly on the Parafilm. The infested plate was closed with a gel blotting paper and another plastic stencil and then turned upside down. The samples were assessed for mortality 5 days after infestation.

[3] = system: Myzus persicae (Green Peach Aphid); test: Myzus persicae (green peach aphid) feeding/contact activity, sunflower leaf discs; conditions: foliar, 144 h, application rate 200 ppm, aphid population of mixed ages, 6 days after infestation
Method: Myzus persicae (Green Peach Aphid): Feeding/Contact Activity
Sunflower leaf discs were placed onto agar in a 24-well microtiter plate and sprayed with aqueous test solutions prepared from 10,000 ppm DMSO stock solutions. After drying, the leaf discs were infested with an aphid population of mixed ages. The samples were assessed for mortality 6 days after infestation.

| SMILES | mortality at 24 ppm [1] [%] | mortality at 12 ppm [2] [%] | mortality at 200 ppm [3] [%] |
| --- | --- | --- | --- |
| O=c1nc2n(Cc3ccc(Cl)nc3)cccc-2n1-c1cncc(Cl)c1 [Compound A22, 1-(5-chloro-3-pyridyl)-4-[(6-chloro-3-pyridyl)methyl]imidazo[4,5-b]pyridin-2-one] | ≥ 80 | ≥ 80 | – |
| N#Cc1ccc(-n2c3cccn(Cc4ccc(Cl)nc4)c-3nc2=O)cc1 [Compound A10, 4-[4-[(6-chloro-3-pyridyl)methyl]-2-oxo-imidazo[4,5-b]pyridin-1-yl]benzonitrile] | – | ≥ 80 | ≥ 80 |
| O=c1nc2n(Cc3ccc(Cl)nc3)cccc-2n1-c1cccc(C(F)(F)F)c1 [Compound A21, 4-[(6-chloro-3-pyridyl)methyl]-1-[3-(trifluoromethyl)phenyl]imidazo[4,5-b]pyridin-2-one] | – | ≥ 80 | ≥ 80 |
| O=c1nc2n(Cc3ccc(Cl)nc3)cccc-2n1-c1ccsc1 [Compound A47, 4-[(6-chloro-3-pyridyl)methyl]-1-(3-thienyl)imidazo[4,5-b]pyridin-2-one] | – | ≥ 80 | – |
| O=c1nc2n(Cc3ccc(Cl)nc3)cccc-2n1-c1nccnc1C(F)(F)F [Compound A42, 4-[(6-chloro-3-pyridyl)methyl]-1-[3-(trifluoromethyl)pyrazin-2-yl]imidazo[4,5-b]pyridin-2-one] | – | ≥ 80 | ≥ 80 |
| O=c1nc2n(Cc3ccc(Cl)nc3)cccc-2n1-c1csc(C(F)(F)F)c1 [Compound A71, 4-[(6-chloro-3-pyridyl)methyl]-1-[5-(trifluoromethyl)-3-thienyl]imidazo[4,5-b]pyridin-2-one] | – | ≥ 80 | – |
| O=c1nc2n(Cc3ccc(Cl)nc3)cccc-2n1-c1csc(C(F)F)c1 [Compound A68, 4-[(6-chloro-3-pyridyl)methyl]-1-[5-(difluoromethyl)-3-thienyl]imidazo[4,5-b]pyridin-2-one] | – | ≥ 80 | – |
| O=c1nc2n(Cc3ccc(Cl)nc3)cccc-2n1-c1ccccn1 [Compound A27, 4-[(6-chloro-3-pyridyl)methyl]-1-(2-pyridyl)imidazo[4,5-b]pyridin-2-one] | ≥ 80 | ≥ 80 | – |
| O=c1nc2n(Cc3ccc(Cl)nc3)cccc-2n1-c1nnc(C2CC2)o1 [Compound A79, 4-[(6-chloro-3-pyridyl)methyl]-1-(5-cyclopropyl-1,3,4-oxadiazol-2-yl)imidazo[4,5-b]pyridin-2-one] | – | ≥ 80 | ≥ 80 |
| Cc1c(-n2c3cccn(Cc4ccc(Cl)nc4)c-3nc2=O)cnn1C(F)F [Compound A99, 4-[(6-chloro-3-pyridyl)methyl]-1-[1-(difluoromethyl)-5-methyl-pyrazol-4-yl]imidazo[4,5-b]pyridin-2-one] | ≥ 80 | ≥ 80 | ≥ 80 |
| COc1cccc(-n2c3cccn(Cc4ccc(Cl)nc4)c-3nc2=O)c1 [Compound A7, 4-[(6-chloro-3-pyridyl)methyl]-1-(3-methoxyphenyl)imidazo[4,5-b]pyridin-2-one] | – | ≥ 80 | ≥ 80 |
| O=c1nc2n(Cc3ccc(Cl)nc3)cccc-2n1-c1cccc(-c2ccccc2)c1 [Compound A1, 4-[(6-chloro-3-pyridyl)methyl]-1-(3-phenylphenyl)imidazo[4,5-b]pyridin-2-one] | – | ≥ 80 | ≥ 80 |
| O=c1nc2n(Cc3ccc(Cl)nc3)cccc-2n1-c1cncc(C(F)(F)F)c1 [Compound A25, 4-[(6-chloro-3-pyridyl)methyl]-1-[5-(trifluoromethyl)-3-pyridyl]imidazo[4,5-b]pyridin-2-one] | ≥ 80 | ≥ 80 | ≥ 80 |
| O=c1nc2n(Cc3ccc(Cl)nc3)cccc-2n1-c1ccnc(C(F)(F)F)c1 [Compound A14, 4-[(6-chloro-3-pyridyl)methyl]-1-[2-(trifluoromethyl)-4-pyridyl]imidazo[4,5-b]pyridin-2-one] | – | ≥ 80 | ≥ 80 |
| Cc1cccc(-n2c3cccn(Cc4ccc(Cl)nc4)c-3nc2=O)c1 [Compound A29, 4-[(6-chloro-3-pyridyl)methyl]-1-(m-tolyl)imidazo[4,5-b]pyridin-2-one] | – | ≥ 80 | ≥ 80 |
| N#Cc1cccc(-n2c3cccn(Cc4ccc(Cl)nc4)c-3nc2=O)c1 [Compound A11, 3-[4-[(6-chloro-3-pyridyl)methyl]-2-oxo-imidazo[4,5-b]pyridin-1-yl]benzonitrile] | – | ≥ 80 | ≥ 80 |
| O=c1nc2n(Cc3ccc(Cl)nc3)cccc-2n1-c1cc(F)cs1 [Compound A73, 4-[(6-chloro-3-pyridyl)methyl]-1-(4-fluoro-2-thienyl)imidazo[4,5-b]pyridin-2-one] | – | ≥ 80 | – |

| SMILES | mortality at 24 ppm [1] [%] | mortality at 12 ppm [2] [%] | mortality at 200 ppm [3] [%] |
| --- | --- | --- | --- |
| CCn1nccc1-n1c2cccn(Cc3ccc(Cl)nc3)c-2nc1=O [Compound A89, 4-[(6-chloro-3-pyridyl)methyl]-1-(2-ethylpyrazol-3-yl)imidazo[4,5-b]pyridin-2-one] | – | ≥ 80 | – |
| O=c1nc2n(Cc3ccc(Cl)nc3)cccc-2n1-c1cccc(Cl)c1 [Compound A6, 1-(3-chlorophenyl)-4-[(6-chloro-3-pyridyl)methyl]imidazo[4,5-b]pyridin-2-one] | – | ≥ 80 | ≥ 80 |
| O=c1nc2n(Cc3ccc(Cl)nc3)cccc-2n1-c1cc(C(F)F)ccn1 [Compound A19, 4-[(6-chloro-3-pyridyl)methyl]-1-[4-(difluoromethyl)-2-pyridyl]imidazo[4,5-b]pyridin-2-one] | – | ≥ 80 | – |
| Cc1ccc(C)c(-n2c3cccn(Cc4ccc(Cl)nc4)c-3nc2=O)c1 [Compound A51, 4-[(6-chloro-3-pyridyl)methyl]-1-(2,5-dimethylphenyl)imidazo[4,5-b]pyridin-2-one] | – | ≥ 80 | – |
| O=c1nc2n(Cc3ccc(Cl)nc3)cccc-2n1-c1cnn(C2COC2)c1 [Compound A87, 4-[(6-chloro-3-pyridyl)methyl]-1-[1-(oxetan-3-yl)pyrazol-4-yl]imidazo[4,5-b]pyridin-2-one] | – | – | ≥ 80 |
| O=c1nc2n(Cc3ccc(Cl)nc3)cccc-2n1-c1ncccn1 [Compound A23, 4-[(6-chloro-3-pyridyl)methyl]-1-pyrimidin-2-yl-imidazo[4,5-b]pyridin-2-one] | – | – | ≥ 80 |
| O=c1nc2n(Cc3ccc(Cl)nc3)cccc-2n1-c1ccc(Cl)cc1 [Compound A9, 1-(4-chlorophenyl)-4-[(6-chloro-3-pyridyl)methyl]imidazo[4,5-b]pyridin-2-one] | – | ≥ 80 | ≥ 80 |
| O=c1nc2n(Cc3ccc(Cl)nc3)cccc-2n1-c1ccccc1C(F)(F)F [Compound A81, 4-[(6-chloro-3-pyridyl)methyl]-1-[2-(trifluoromethyl)phenyl]imidazo[4,5-b]pyridin-2-one] | – | ≥ 80 | ≥ 80 |
| O=c1nc2n(Cc3ccc(Cl)nc3)cccc-2n1-c1cncnc1 [Compound A16, 4-[(6-chloro-3-pyridyl)methyl]-1-pyrimidin-5-yl-imidazo[4,5-b]pyridin-2-one] | ≥ 80 | ≥ 80 | – |
| O=c1nc2n(Cc3ccc(Cl)nc3)cccc-2n1-c1ccc(C(F)(F)F)nc1 [Compound A24, 4-[(6-chloro-3-pyridyl)methyl]-1-[6-(trifluoromethyl)-3-pyridyl]imidazo[4,5-b]pyridin-2-one] | ≥ 80 | ≥ 80 | – |
| O=c1nc2n(Cc3ccc(Cl)nc3)cccc-2n1-c1ccc(Cl)cc1Cl [Compound A41, 4-[(6-chloro-3-pyridyl)methyl]-1-(2,4-dichlorophenyl)imidazo[4,5-b]pyridin-2-one] | – | ≥ 80 | – |
| O=c1nc2n(Cc3ccc(Cl)nc3)cccc-2n1-c1cnn(-c2ccccc2)c1 [Compound A5, 4-[(6-chloro-3-pyridyl)methyl]-1-(1-phenylpyrazol-4-yl)imidazo[4,5-b]pyridin-2-one] | – | ≥ 80 | ≥ 80 |
| COc1ccc(-n2c3cccn(Cc4ccc(Cl)nc4)c-3nc2=O)cc1 [Compound A8, 4-[(6-chloro-3-pyridyl)methyl]-1-(4-methoxyphenyl)imidazo[4,5-b]pyridin-2-one] | – | ≥ 80 | ≥ 80 |
| Cc1ccc(-n2c3cccn(Cc4ccc(Cl)nc4)c-3nc2=O)s1 [Compound A67, 4-[(6-chloro-3-pyridyl)methyl]-1-(5-methyl-2-thienyl)imidazo[4,5-b]pyridin-2-one] | – | ≥ 80 | ≥ 80 |
| O=c1nc2n(Cc3cnc(Cl)s3)cccc-2n1-c1ccccc1 [Compound A36, 4-[(2-chlorothiazol-5-yl)methyl]-1-phenyl-imidazo[4,5-b]pyridin-2-one] | – | ≥ 80 | ≥ 80 |
| O=c1nc2n(Cc3ccc(Cl)nc3)cccc-2n1-c1ccccc1Cl [Compound A38, 1-(2-chlorophenyl)-4-[(6-chloro-3-pyridyl)methyl]imidazo[4,5-b]pyridin-2-one] | – | ≥ 80 | ≥ 80 |
| COC(=O)c1ccc(-n2c3cccn(Cc4ccc(Cl)nc4)c-3nc2=O)o1 [Compound A77, methyl 5-[4-[(6-chloro-3-pyridyl)methyl]-2-oxo-imidazo[4,5-b]pyridin-1-yl]furan-2-carboxylate] | – | ≥ 80 | – |
